Assay results reported in ChEMBL document CHEMBL4665672, “Developing new hybrid scaffold for urease inhibition based on carbazole-chalcone conjugates: Synthesis, assessment of therapeutic potential and computational docking analysis” (Bioorg Med Chem, 2019).
pIC50: −log10 of the molar value.

Tests used:
[1] = target: Urease (Canavalia ensiformis) (UniProt P07374); experiment: Inhibition of jack bean urease assessed as reduction in ammonia production at 0.5 mM using urea as substrate incubated for 15 mins by indophenol method
Urease (Canavalia ensiformis), sequence (P07374 whole entry, looked up): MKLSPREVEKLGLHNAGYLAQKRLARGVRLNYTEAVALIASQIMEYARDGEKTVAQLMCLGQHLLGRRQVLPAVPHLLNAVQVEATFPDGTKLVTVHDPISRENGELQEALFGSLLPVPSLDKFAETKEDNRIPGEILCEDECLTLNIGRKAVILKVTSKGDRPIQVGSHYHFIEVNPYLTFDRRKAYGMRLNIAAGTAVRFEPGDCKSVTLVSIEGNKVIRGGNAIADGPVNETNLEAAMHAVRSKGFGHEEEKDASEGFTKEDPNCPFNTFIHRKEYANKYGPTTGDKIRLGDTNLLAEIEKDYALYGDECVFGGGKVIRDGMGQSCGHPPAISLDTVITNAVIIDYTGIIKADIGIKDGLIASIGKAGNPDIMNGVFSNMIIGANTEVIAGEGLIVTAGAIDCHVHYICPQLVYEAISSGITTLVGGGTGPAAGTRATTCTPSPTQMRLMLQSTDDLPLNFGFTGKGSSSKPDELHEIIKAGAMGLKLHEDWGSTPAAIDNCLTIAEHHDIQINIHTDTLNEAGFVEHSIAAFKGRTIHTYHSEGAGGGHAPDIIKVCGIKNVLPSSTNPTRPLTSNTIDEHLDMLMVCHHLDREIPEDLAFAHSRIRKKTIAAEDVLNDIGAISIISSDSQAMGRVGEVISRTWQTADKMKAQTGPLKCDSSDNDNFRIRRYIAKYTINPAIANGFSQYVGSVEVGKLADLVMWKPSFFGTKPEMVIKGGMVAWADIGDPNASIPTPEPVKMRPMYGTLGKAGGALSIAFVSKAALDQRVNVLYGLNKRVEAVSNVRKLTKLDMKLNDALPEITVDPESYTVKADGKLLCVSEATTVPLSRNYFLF

Urease = Urease (Canavalia ensiformis, UniProt P07374); experiment: Inhibition of jack bean urease assessed as reduction in ammonia production using urea as substrate incubated for 15 mins by indophenol method
Urease, sequence (P07374 whole entry): as the sequence (P07374 whole entry, looked up) above

| Structure (SMILES) | inhibition [1] [%] | pIC50 (Urease) |
| --- | --- | --- |
| CCCCCCCCn1c2ccc(C(C)=O)cc2c2cc(C(=O)/C=C/c3cc(OC)c(OC)c(OC)c3)ccc21 | 74.5 | 3.82 |
| CCCCCCCCn1c2ccc(C(C)=O)cc2c2cc(C(=O)/C=C/c3ccc(Cl)cc3)ccc21 | 95.1 | 4.61 |
| CCCCCCCCn1c2ccc(C(C)=O)cc2c2cc(C(=O)/C=C/c3cccc(Br)c3)ccc21 | 10.9 |  |
| CCCCCCCCn1c2ccc(C(C)=O)cc2c2cc(C(=O)/C=C/c3ccccc3)ccc21 | 19.3 |  |
| CCCCCCCCn1c2ccc(C(C)=O)cc2c2cc(C(=O)/C=C/c3ccco3)ccc21 | 78.7 | 4.61 |
| CCCCCCCCn1c2ccc(C(C)=O)cc2c2cc(C(=O)/C=C/c3ccccc3Cl)ccc21 | 24.5 |  |
| CCCCCCCCn1c2ccc(C(C)=O)cc2c2cc(C(=O)/C=C/c3ccc([N+](=O)[O-])cc3)ccc21 | 29.3 |  |
| CCCCCCCCn1c2ccc(C(C)=O)cc2c2cc(C(=O)/C=C/c3cccc([N+](=O)[O-])c3)ccc21 | 94.4 | 4.85 |
| CCCCCCCCn1c2ccc(C(C)=O)cc2c2cc(C(=O)/C=C/c3ccccc3Br)ccc21 | 94.8 | 5.05 |
| CCCCCCCCn1c2ccc(C(C)=O)cc2c2cc(C(=O)/C=C/c3ccc(N(C)C)cc3)ccc21 | 22.6 | 3.83 |
| CCCCCCCCn1c2ccc(C(C)=O)cc2c2cc(C(=O)/C=C/c3ccc(Br)cc3)ccc21 | 24.9 |  |
| CCCCCCCCn1c2ccc(C(C)=O)cc2c2cc(C(=O)/C=C/c3ccccc3[N+](=O)[O-])ccc21 | 18.6 |  |
| CCCCCCCCn1c2ccc(C(C)=O)cc2c2cc(C(=O)/C=C/c3ccc(OC)cc3)ccc21 | 98.5 | 5.16 |
| CCCCCCCCn1c2ccc(C(C)=O)cc2c2cc(C(=O)/C=C/c3cccc(OC)c3)ccc21 | 7.9 |  |
